The text below walks through data of PubChem BioAssay AID280 (DTP/NCI, 2004).

This assay concerns nude mice, LOX melanoma ip, survival T/C. Put plainly: NCI In Vivo Anticancer Drug Screen. Data for tumor model Human Amelanotic Melanoma (LOX) (intraperitoneal) in NU/NU BALB/C (nude) mice. To be noted: endpoint: median survival time, schedule: Q04DX003 (ip), higher = longer survival. As for the experimental part: The antitumor activity of compounds was measured in mice bearing transplantable tumors. Survival or tumor size were measured and the results are expressed as the measurement made in the treated group (T) divided by the measurement made in the vehicle treated control group (C). The tumor model used in this assay is Human Amelanotic Melanoma (LOX) (intraperitoneal) in NU/NU BALB/C (nude) mice

Where [1] appears, read: dose: 6.25 mg/kg/injection, vehicle: Klucel (hydroxypropylcellulose) (HPC).
Setting [2] is: dose: 25.0 mg/kg/injection, vehicle: Klucel (hydroxypropylcellulose) (HPC).
Setting [3] is: dose: 75.0 mg/kg/injection, vehicle: Klucel (hydroxypropylcellulose) (HPC).
The mark [4] stands for this setting: dose: 150.0 mg/kg/injection, vehicle: Klucel (hydroxypropylcellulose) (HPC).
Where [5] appears, read: dose: 25.0 mg/kg/injection, vehicle: saline with Tween-80.
Where [6] appears, read: dose: 12.5 mg/kg/injection, vehicle: saline.
[7] abbreviates: dose: 25.0 mg/kg/injection, vehicle: saline.
[8] abbreviates: dose: 50.0 mg/kg/injection, vehicle: saline with Tween-80.
Where [9] appears, read: dose: 100.0 mg/kg/injection, vehicle: saline with Tween-80.
[10] abbreviates: dose: 200.0 mg/kg/injection, vehicle: saline with Tween-80.
Where [11] appears, read: dose: 400.0 mg/kg/injection, vehicle: saline with Tween-80.
[12] abbreviates: dose: 300.0 mg/kg/injection, vehicle: saline with Tween-80.

Molecules are shown by their SMILES. Where “and” joins values, the source holds several entries; their conditions need not be identical. Equal values may be shown once. Inconclusive results and toxic doses are left out.

Consider `O=C1c2ccccc2C(=O)c2c1cn1c2Cc2ccccc2C1`, for which the T/C under setting [1] is 91 % of control; the T/C under setting [2] is 93 % of control; the T/C (dose: 50.0 mg/kg/injection, vehicle: Klucel (hydroxypropylcellulose) (HPC)) is 109 % of control and 95 % of control; the T/C (dose: 100.0 mg/kg/injection, vehicle: Klucel (hydroxypropylcellulose) (HPC)) is 90 % of control; the T/C (dose: 200.0 mg/kg/injection, vehicle: Klucel (hydroxypropylcellulose) (HPC)) is 91 % of control; the T/C (dose: 400.0 mg/kg/injection, vehicle: Klucel (hydroxypropylcellulose) (HPC)) is 95 % of control.
Regarding `Cc1nc(C(Cl)(Cl)Cl)[nH]c(=O)c1SCCO`, the T/C (dose: 75.0 mg/kg/injection, vehicle: distilled water + Tween-80 + alcohol) was 102 % of control; the T/C (dose: 150.0 mg/kg/injection, vehicle: distilled water + Tween-80 + alcohol) was 116 % of control; the T/C (dose: 300.0 mg/kg/injection, vehicle: distilled water + Tween-80 + alcohol) was 101 % of control; the T/C (dose: 600.0 mg/kg/injection, vehicle: distilled water + Tween-80 + alcohol) was 117 % of control.
Regarding `COc1ccccc1/C=C/C(=O)c1ccccc(=O)c1O`, the T/C is, setting by setting: (dose: 9.38 mg/kg/injection, vehicle: Klucel (hydroxypropylcellulose) (HPC)) 98 % of control; (dose: 18.75 mg/kg/injection, vehicle: Klucel (hydroxypropylcellulose) (HPC)) 89 % of control; (dose: 37.5 mg/kg/injection, vehicle: Klucel (hydroxypropylcellulose) (HPC)) 98 % of control; under setting [3], 110 % of control; under setting [4], 103 % of control.
In the case of `COC1=CCC23C(=O)C=CC(=O)C2(C1)C(=O)c1ccccc1C3=O` (stereo not given), the T/C is, setting by setting: (dose: 6.25 mg/kg/injection, vehicle: saline with Tween-80) 101 % of control; (dose: 12.5 mg/kg/injection, vehicle: saline with Tween-80) 100 % of control; under setting [5], 94 % of control.
With `NCCSC(C[N+](=O)[O-])c1ccccc1Cl` (stereo not given), the T/C is 107 % of control under setting [6]; 115 % of control under setting [7]; 96 % of control (dose: 50.0 mg/kg/injection, vehicle: saline).
With `COc1cccc2c1C(CO)N1C(C#N)C3CC(C(=O)O)C(C1C2)N3C` (stereo not given), the T/C reads like this: under setting [6], 175 % of control; (dose: 12.5 mg/kg/injection, vehicle: suspension in saline) 164 % of control; under setting [7], 157 % of control.
With `NC(CNC(=O)CBr)C(=O)O` (stereo not given), the T/C (dose: 12.5 mg/kg/injection, vehicle: water) was 97 % of control; the T/C (dose: 25.0 mg/kg/injection, vehicle: water) was 93 % of control; the T/C (dose: 50.0 mg/kg/injection, vehicle: water) was 98 % of control; the T/C (dose: 100.0 mg/kg/injection, vehicle: water) was 90 % of control; the T/C (dose: 200.0 mg/kg/injection, vehicle: water) was 88 % of control.
In the case of `O=C(NC(Cc1ccc(I)cc1)C(=O)O)c1ccc(Br)cc1` (stereo not given), the T/C was 94 % of control (dose: 18.75 mg/kg/injection, vehicle: other); 111 % of control (dose: 18.75 mg/kg/injection, vehicle: sodium bicarbonate); 151 % of control (dose: 37.5 mg/kg/injection, vehicle: other); 107 % of control (dose: 37.5 mg/kg/injection, vehicle: sodium bicarbonate); 91 % of control (dose: 75.0 mg/kg/injection, vehicle: other); 96 % of control (dose: 75.0 mg/kg/injection, vehicle: sodium bicarbonate). Also, the T/C (dose: 150.0 mg/kg/injection, vehicle: other) is 98 % of control; the T/C (dose: 150.0 mg/kg/injection, vehicle: sodium bicarbonate) is 86 % of control; the T/C (dose: 300.0 mg/kg/injection, vehicle: sodium bicarbonate) is 106 % of control.
As to `Nc1ccc2ccc(N)cc2c1`, the T/C is, setting by setting: under setting [5], 102 % of control; under setting [8], 101 % of control; under setting [9], 102 % of control; under setting [10], 91 % of control; under setting [11], 101 % of control.
For `CC(=O)OCC1OC(n2ncc(=O)[nH]c2=O)C(OC(C)=O)C1OC(C)=O` (stereo not given), the T/C was 99 % of control (dose: 75.0 mg/kg/injection, vehicle: suspension in saline); 105 % of control (dose: 150.0 mg/kg/injection, vehicle: suspension in saline); 104 % of control (dose: 300.0 mg/kg/injection, vehicle: suspension in saline); 99 % of control (dose: 600.0 mg/kg/injection, vehicle: suspension in saline); 95 % of control (dose: 1200.0 mg/kg/injection, vehicle: suspension in saline).
In the case of `Cc1cccc(OCC(O)CN2CC2)c1` (stereo not given), the T/C by setting is: under setting [5], 104 % of control; under setting [8], 122 % of control and 99 % of control; under setting [9], 121 % of control; under setting [10], 122 % of control.
Regarding `O=C(Nc1cc(Cl)ccc1C(=O)O)c1cccc(C[n+]2ccccc2)c1`, the T/C (dose: 37.5 mg/kg/injection, vehicle: saline with Tween-80) was 94 % of control and 100 % of control; the T/C (dose: 75.0 mg/kg/injection, vehicle: saline with Tween-80) was 105 % of control and 90 % of control; the T/C under setting [12] is 89 % of control.
In the case of `CN=C(NC#N)NCCSCc1nc[nH]c1C`, the T/C is 98 % of control under setting [3]; 98 % of control under setting [4]; 101 % of control (dose: 300.0 mg/kg/injection, vehicle: Klucel (hydroxypropylcellulose) (HPC)).
On to `CCCCCCCCCCCCCCCCCCOCC(CO)OC` (stereo not given), for which the T/C (dose: 150.0 mg/kg/injection, vehicle: saline with Tween-80) is 150 % of control and 151 % of control; the T/C under setting [12] is 160 % of control.
Consider `O=C1CN(c2ccccc2)C(=O)C1C(=O)Nc1ccc(Cl)c(Cl)c1` (stereo not given), for which, where the note is “dose: 120.0 mg/kg/injection, vehicle: saline with Tween-80”, the T/C is 115 % of control.
On to `CCC(=O)[O][Bi]([c]1ccccc1)[c]1ccccc1`, for which the T/C was 93 % of control (dose: 3.13 mg/kg/injection, vehicle: Klucel (hydroxypropylcellulose) (HPC)); 88 % of control under setting [1]; 110 % of control (dose: 12.5 mg/kg/injection, vehicle: Klucel (hydroxypropylcellulose) (HPC)); 100 % of control under setting [2].
In the case of `C/C=C/C=C/c1cc2cc3c(c(O)c2c(=O)[nH]1)C1(CC3)C(O)=c2c(=O)c3c(=O)cc(OC)c(=O)c=3c(=O)c2=C1O` (stereo not given), the T/C runs as follows: (dose: 1.0 mg/kg/injection, vehicle: water) 155 % of control; (dose: 1.8 mg/kg/injection, vehicle: water) 155 % of control; (dose: 3.0 mg/kg/injection, vehicle: water) 169 % of control and 177 % of control; (dose: 5.0 mg/kg/injection, vehicle: water) 177 % of control; (dose: 8.3 mg/kg/injection, vehicle: water) 189 % of control.
In the case of `Cc1ccoc1`, the T/C by setting is: under setting [5], 94 % of control; under setting [8], 95 % of control; under setting [9], 102 % of control; under setting [10], 95 % of control; under setting [11], 96 % of control.
